Patent US4207316A, “Novel 17-substituted 11 β-hydroxy steroids of the pregnane series, their manufacture, preparation and use” (Schering Aktiengesellschaft, priority 1978, dated 1980)
Read-outs that look alike come from different tables or passages of the source.

Tests used:
[1] = tested on: erythema of stripped skin (vasoconstriction); test: vasoconstriction test (topical efficacy), difference in degree of efficacy vs diflucortolone 21-valerate (DFV); type: in vivo, healthy test persons (human); conditions: 0.1 p.p.m. active agent, positive = more favorable than DFV
Protocol: The topical efficacy can be determined as follows using the vasoconstriction test.
The test was conducted on respectively eight healthy test persons of both sexes, who had not received any local corti costeroid treatment within the preceding two weeks. After the stratum corneum on the test persons' backs was removed down to the stratum lucidum (20-40 times application and tearing off of an adhesive film), respectively 0.1 g. of the preparations was applied to areas of a size of 4 cm^2 without protective dressing. To avoid the application of the identical preparation to identical skin areas, the application is done in a rotating fashion. The vasoconstriction is evaluated visually after 4 and 8 hours by the investigator in accordance with the following grades of effectiveness: 1=absolute fading; 2=minor residual erythema; 3=medium-grade erythema, reddening intensity in the central zone of stripped, untreated and undamaged skin; 4=erythema with minor fading; 5=no fading, or intensification of erythema.
The individual evaluations were averaged.
In each test series, diflucortolone 21-valerate (=6α,9α-difluoro-11β-hydroxy-16α-methyl-21-valeryloxy-1,4-pregnadiene-3,20-dione=DFV) is utilized as the reference compound.
The difference Δ of the average degrees of efficacy of DFV and of the test compound determined in the individual series of investigations is calculated in each case. Positive deviations Δ show a more favorable evaluation: negative deviations show a more unfavorable evaluation of the test compound as compared to DFV.
The tables set forth below list the observed test results obtained when treating the test persons with a preparation containing 0.1 p.p.m. of active agent.

[2] = tested on: paw edema (Mycobacterium butyricum suspension); test: adjuvant edema test (systemic effectiveness); type: in vivo, SPF rats; conditions: for ED50: Mycobacterium
Protocol: The systemic effectiveness of the compounds can be determined with the aid of the adjuvant edema test as follows:
SPF rats weighing 130-150 g. are injected in the right hind paw, for producing a center of inflammation, with 0.1 ml. of a 0.5% Mycobacterium butyricum suspension (obtainable from the U.S. company Difco). Prior to injection, the paw volume of the rats is measured. Twenty-four hours after injection, the paw volume is measured once again to determine the extent of the edema. Thereafter, varying amounts of the test compound--dissolved in a mixture of 29% benzyl benzoate and 71% castor oil--are administered orally or subcutaneously to the rats. After another 24 hours, the paw volume is again determined.
The control animals are treated in the same way, except that they are injected with a benzyl benzoate-castor oil mixture free of test compound.
From the paw volumes determined, the amount of test compound required for attaining a 50% reduction in volume of the experimentally produced paw edema is calculated in the usual way.
The following tables indicate the thus-obtained test results, wherein in each case the compounds of this invention are compared with the conventional corticoids contained in commercially available preparations which are most analogous in structure.

[3] = rats, subcutaneous, 24 h after administration
[4] = sc, rats, subcutaneous, 24 h after administration, read-out: Adjuvant Edema Test ED50 s.c. (50% reduction in volume of paw edema)
[5] = rats, oral, 24 h after administration
[6] = rats, oral, 24 h after administration, read-out: Adjuvant Edema Test ED50 p.o. (50% reduction in volume of paw edema)

| Compound | Vasoconstriction Test Δ After 8 h. (difference of average degrees of efficacy of DFV and test compound) [1] | Adjuvant Edema Test ED50 s.c. (50% reduction in volume of paw edema) [2, 3] | ED50 [2, 4] [mg/kg] | other results |
| --- | --- | --- | --- | --- |
| 21-Butyryloxy-11β-hydroxy-17α-methoxymethoxy-1,4-pregnadiene-3,20-dione [No. 12] | +0.2 | about 1 mg./kg. Animal | – | Vasoconstriction Test Δ After 4 h. (difference of average degrees of efficacy of DFV and test compound) [1]: +0.5 |
| CCOCO[C@]1(C(=O)CO)CC[C@H]2[C@@H]3CCC4=CC(=O)CC[C@]4(C)[C@H]3[C@@H](O)C[C@@]21C [compound 3] | – | – | 14.5 | – |
| 17α-Ethoxymethoxy-11β,21-dihydroxy-4-pregnene-3,20-dione [No. 3] | 0.0 | 3.0 mg./kg. Animal | – | Vasoconstriction Test Δ After 4 h. (difference of average degrees of efficacy of DFV and test compound) [1]: -0.3; Adjuvant Edema Test ED50 p.o. (50% reduction in volume of paw edema) [2, 5]: 22 mg./kg. Animal |
| 11β-hydroxy-17α-methoxymethoxy-21-propionyloxy-4-pregnene-3,20- dione [Example 19] | +0.5 | 1.9 mg./kg. Animal | – | Vasoconstriction Test Δ After 4 h. (difference of average degrees of efficacy of DFV and test compound) [1]: +0.5 |
| CC(C)OCO[C@]1(C(=O)CO)CC[C@H]2[C@@H]3CCC4=CC(=O)CC[C@]4(C)[C@H]3[C@@H](O)C[C@@]21C [compound 5] | – | – | > 30 | Adjuvant Edema Test, percentage in parentheses beside ED50 s.c. bound ([2]; rats, subcutaneous, at 30 mg./kg.): 42% |
| 21-acetoxy-11β-hydroxy-17α-methoxymethoxy-4-pregnene-3,20-dione [Example 18] | – | 0.13 mg./kg. Animal | – | – |
| 11β-hydroxy-17α-methoxymethoxy-21-trimethylacetoxy-4-pregnene-3,20-dione [Example 21] | – | 3.0 mg./kg. Animal | – | – |
| 6α-Fluoro-11β,21-dihydroxy-17α-methoxymethoxy-4-pregnene-3,20-dione [No. 25] | +1.3 | – | – | Vasoconstriction Test Δ After 4 h. (difference of average degrees of efficacy of DFV and test compound) [1]: +1.0; Adjuvant Edema Test ED50 p.o. (50% reduction in volume of paw edema) [2, 5]: about 8 mg./kg. Animal |
| COCO[C@]1(C(=O)CO)CC[C@H]2[C@@H]3CCC4=CC(=O)C=C[C@]4(C)[C@H]3[C@@H](O)C[C@@]21C [compound 9] | – | – | – | ED50 [2, 6]: 9.8 mg/kg |
| C[C@]12CCC(=O)C=C1CC[C@@H]1[C@@H]2[C@@H](O)C[C@@]2(C)[C@H]1CC[C@]2(OC1CCCCO1)C(=O)CO (stereo partly drawn) [compound 7] | – | – | 12 | – |
| 11β,21-dihydroxy-17α-methoxymethoxy-16β-methyl-4-pregnene- 3,20-dione [Example 17] | – | 2.1 mg./kg. Animal | – | – |
| 21-Acetoxy-9α-chloro-11β-hydroxy-17α-methoxymethoxy-4-pregnene-3,20-dione [No. 14] | – | – | – | Vasoconstriction Test Δ After 4 h. (difference of average degrees of efficacy of DFV and test compound) ([1]; listed as 26): -0.8; Vasoconstriction Test Δ After 4 h. (difference of average degrees of efficacy of DFV and test compound) ([1]; listed as 27): +0.6; Vasoconstriction Test Δ After 8 h. (difference of average degrees of efficacy of DFV and test compound) ([1]; listed as 26): -0.9; Vasoconstriction Test Δ After 8 h. (difference of average degrees of efficacy of DFV and test compound) ([1]; listed as 27): +0.6; Adjuvant Edema Test ED50 p.o. (50% reduction in volume of paw edema) [2, 5]: 22 mg./kg. Animal |
| 21-butyryloxy-11β-hydroxy-17α-methoxymethoxy-4-pregnene-3,20-dione [Example 20] | – | 2.0 mg./kg. Animal | – | – |
| 11β,21-dihydroxy-17α-(1'-methoxyethoxy)-6α-methyl-1,4-pregnadiene-3,20-dione [Example 12] | – | about 3 mg./kg. Animal | – | – |
| 11β,21-Dihydroxy-17α-methoxymethoxy-1,4-pregnadiene-3,20-dione [No. 9] | +0.4 | about 3 mg./kg. Animal | – | – |
| 11β,21-Dihydroxy-17α-propoxymethoxy-4-pregnene-3,20-dione [No. 4] | +0.7 | 3.2 mg./kg. Animal | – | Vasoconstriction Test Δ After 4 h. (difference of average degrees of efficacy of DFV and test compound) [1]: +0.4 |
| CCCC(=O)O[C@]1(C(=O)CO)CC[C@H]2[C@@H]3CCC4=CC(=O)CC[C@]4(C)[C@H]3[C@@H](O)C[C@@]21C [compound 1] | – | – | 13 | ED50 [2, 6]: 54 mg/kg |
| CCCCOCO[C@]1(C(=O)CO)CC[C@H]2[C@@H]3CCC4=CC(=O)CC[C@]4(C)[C@H]3[C@@H](O)C[C@@]21C [compound 6] | – | – | 20 | – |
| COCO[C@]1(C(=O)CO)CC[C@H]2[C@@H]3CCC4=CC(=O)CC[C@]4(C)[C@H]3[C@@H](O)C[C@@]21C [compound 2] | – | – | 13 | ED50 [2, 6]: 67 mg/kg |
| 21-Acetoxy-11β-hydroxy-17α-methoxymethoxy-1,4-pregnadiene-3,20-dione [No. 10] | +1.0 | 3.0 mg./kg. Animal | – | Vasoconstriction Test Δ After 4 h. (difference of average degrees of efficacy of DFV and test compound) [1]: +0.5 |
| CCCOCO[C@]1(C(=O)CO)CC[C@H]2[C@@H]3CCC4=CC(=O)CC[C@]4(C)[C@H]3[C@@H](O)C[C@@]21C [compound 4] | – | – | ~10 | – |
| 17α-Butoxymethoxy-11β,21-dihydroxy-4-pregnene-3,20-dione [No. 6] | +1.0 | about 1 mg./kg. Animal | – | Vasoconstriction Test Δ After 4 h. (difference of average degrees of efficacy of DFV and test compound) [1]: +0.9 |
| COCO[C@]1(C(=O)COC(C)=O)CC[C@H]2[C@@H]3CCC4=CC(=O)C=C[C@]4(C)[C@H]3[C@@H](O)C[C@@]21C [compound 10] | – | – | > 3 | Adjuvant Edema Test, percentage in parentheses beside ED50 s.c. bound ([2]; rats, subcutaneous, at 3 mg./kg.): 25% |
| C[C@]12C=CC(=O)C=C1CC[C@@H]1[C@@H]2[C@@H](O)C[C@@]2(C)[C@H]1CC[C@]2(O)C(=O)CO [compound 8] | – | – | – | ED50 ([2]; in Rattus norvegicus, po, 24 h, read-out: Adjuvant Edema Test ED50 p.o. (50% reduction in volume of paw edema)): 8.6 mg/kg; ED50 ([2]; in Rattus norvegicus, sc, 24 h, read-out: Adjuvant Edema Test ED50 s.c. (50% reduction in volume of paw edema)): 2.6 mg/kg |
| 21-acetoxy-17α-methoxymethoxy-4-pregnene-3,11,20-trione [Example 24] | – | – | – | Adjuvant Edema Test ED50 s.c. (50% reduction in volume of paw edema) ([2]; rats, subcutaneous, 24 h after administration, 1440 min): 3.5 mg./kg. Animal; Adjuvant Edema Test ED50 s.c. (50% reduction in volume of paw edema) ([2]; rats, subcutaneous, 24 h after administration, listed as 25, 1440 min): 4.0 mg./kg. Animal |
